Structures can show the parent of a compound that is named as a salt. Where two headings read alike, the source gives them in different places.
Tests used:
[1] = tested on: SOX2 (ectoderm and pluripotency marker) in RUES2-GLR cells; assay: DevTox GLR-Endo assay: increase in percent SOX2-positive cells (AEID 3095, Sox2_up); conditions: for AC50 / Emax: Homo sapiens; for AC50: read-out: ga (winning model); for Emax: read-out: tp (winning model); for MAX_MEAN: tcpl plot AEID3095, maximum mean response; for MAX_MED: tcpl plot AEID3095, maximum median response
Description: RUES2-GLR cells were seeded 24 h prior to differentiation initiation into vitronectin-coated 384-well CellCarrier Ultra plates (10.6 mm^2/well) (Perkin Elmer, Waltham, MA, USA). Vitronectin (0.5 µg/cm^2)-coated plates were prepared and stored at 4 °C, wrapped in parafilm, for less than seven days and incubated at room temperature for one hour prior to cell seeding. […] Cells were dispensed into 20 µL coating solution using a Certus FLEX Micro Dispenser (Fritz Gyger, Gwatt, Switzerland) with a 0.45 µm valve to a final volume of 100 µL and density of 2.8 × 10^3 cells per well.
Following a 24 h post-seeding incubation period (Time = 0 h) (Figure 3A), directed endoderm differentiation was initiated with the PSC Definitive Endoderm Induction kit (Gibco, Waltham, MA, USA). […] A target dilution series (0.002–200 µM) was generated by dispensing variable nanoliter volumes of test chemical and backfilling with a complementary volume of DMSO using Echo Cherry Pick software (v.1.6.2). Wells were backfilled with 50 µL of induction medium using a Certus FLEX Micro Dispenser with 0.45 µm valves. Test compound treatment plates were mixed on a Multi-Microplate Genie mixer at 700 rpm for 10 min and subsequently incubated for two hours in a humidified atmosphere at 37 °C with 5% CO2. Each chemical treatment (0 h–Medium A; 24 h–Medium B) were prepared the day of treatment. At 0 h, cell culture medium was aspirated from the assay plate at a rate of 1 µL/s and 40 µL of Medium A ± test chemical applied using a CyBio FeliX automated liquid handler (Analytik Jena, Jena, Germany). At 24 h, conditioned cell culture medium was aspirated and 40 µL of Medium B ± test chemical was applied. At 48 h, cells were prepared for high-content image acquisition by fixation and nuclear staining. The total test chemical incubation period was 48 h. For fixation, a 4% paraformaldehyde (PFA) solution was achieved by adding 40 µL of 8% PFA directly to cell culture medium using a CyBio FeliX liquid handler. […] Following an additional 30 min incubation period at room temperature, staining solution was aspirated, 50 µL of DPBS was added, and plate sealed with MicroAmp Optical Adhesive Film (Applied Biosystems, Waltham, MA, USA).
Images were acquired within 12 h post-fixation using an Opera Phenix High-Content Screening System (Perkin Elmer, Waltham, MA, USA). […] Cell identification and mean biomarker fluorescent intensities were calculated using Harmony image analysis software (Perkin Elmer, Waltham, MA, USA). Cell nuclei were identified using the object classifying algorithm C of the software with border objects excluded using the “Remove Border Objects” feature. Mean cell biomarker intensity statistics were gathered from each object and exported for further analysis using a custom script in Python version 3.7.4 [61] […] For each plate, pluripotent-negative control wells were used to establish baseline intensity values and a cutoff threshold for determining SOX17 and BRA biomarker-positive cells. Endoderm differentiated positive control wells were used to establish baseline intensity values and a cutoff threshold for SOX2-positive cells. Cells with a mean intensity five times the baseline median absolute deviation (5*bmad) above the median cell intensity for plate-based control population technical replicates were considered positive. Well-based cell counts, reflected by the sum of total counted objects from all fields, were used to calculate the percent responders for each respective biomarker and evaluate cytotoxicity. Well-level results were exported for data modeling in the ToxCast Pipeline.
The ToxCast Pipeline R package (tcpl v.2.0.2) was used to normalize, fit, and qualify concentration-response screening data [63].

RUES2-GLR cells = assay: DevTox GLR-Endo assay: decrease in total cell count, cytotoxicity (AEID 3098, CellCount_dn); conditions: for Emax: Homo sapiens, read-out: Cell Count % Max Inhibition
[2] = tested on: SOX17 (endoderm marker) in RUES2-GLR cells; assay: DevTox GLR-Endo assay: increase in percent SOX17-positive cells (AEID 3093, Sox17_up); format: cell-based, human; conditions: for Emax: Homo sapiens; for HIT−CALL: tcpl plot AEID3093, COFF 20.3
Description: (§1) The total test chemical incubation period was 48 h.
(§2) (Supplementary Materials).

[3] = cited from earlier work; for Development Toxicant Classification: Table S2; for Classification: developmental toxicant classification (Teratogen / Non-Teratogen) of reference and training chemicals, ref DOI per chemical: 10.1093/toxsci/kft239, 10.1093/toxsci/kfaa014, 10.1177/026119290203000204, 10.1038/s41598-020-59542-x; for DT Class.: developmental toxicant classification
[4] = tested on: o/c ratio in H9 embryonic stem cells; conditions: Teratogen Index, o/c ratio; cited from earlier work
[5] = tested on: SOX17 (endoderm marker) in RUES2-GLR cells; assay: DevTox GLR-Endo assay: decrease in percent SOX17-positive cells (AEID 3094, Sox17_dn); conditions: for Hit Call: Table S2, SOX17-positive cells, cutoff 3*bmad; for DevTox ACC: Table S2, percent SOX17-positive cells; for DevTox-GLR Endo ACC: activity concentration at cutoff, SOX17-positive cells; for HIT−CALL: tcpl plot AEID3094, COFF 20.3; for hit call designation (in words): DevTox GLR-Endo prediction against developmental toxicant classification
Method in brief: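 RUES2-GLR cells under endoderm differentiation exposed to test chemicals for 48 h in total, with 0.2% DMSO solvent control and SB431542 (1 µM) as developmental-toxicant control. Endpoints: decrease in total cell count and in percent SOX17-positive cells; n = 4 biological replicates minimum.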

[6] = DevTox GLR-Endo assay: decrease in total cell count, cytotoxicity (AEID 3098, CellCount_dn); conditions: human
[7] = tested on: SOX17 in H9 human ESC line; conditions: SOX17 half-maximal inhibition concentration; read-out: hPST IC50; cited from earlier work
H9 human ESC line = conditions: cited from earlier work
[8] = tested on: BRA (mesoderm marker) in RUES2-GLR cells; assay: DevTox GLR-Endo assay: increase in percent BRA-positive cells (AEID 3096, Bra_up); format: cell-based, human; conditions: for HIT−CALL: tcpl plot AEID3096, COFF 0.774; for MAX_MEAN: tcpl plot AEID3096, maximum mean response; for MAX_MED: tcpl plot AEID3096, maximum median response
Description: as §1, §2

[9] = tcpl plot AEID3093, maximum mean response, read-out: MAX_MEAN
[10] = tcpl plot AEID3093, maximum median response, read-out: MAX_MED
[11] = chemicals common with quickPredict
[12] = Homo sapiens, read-out: DevTox % Max Inhibition
[13] = Homo sapiens, read-out: MAX_MEAN
[14] = Homo sapiens, read-out: MAX_MED
[15] = Homo sapiens, read-out: ga (winning model), tcpl plot AEID3094, gain parameter of winning curve fit (log concentration, µM axis), hit calls only (converted)
[16] = Homo sapiens, read-out: tp (winning model)
[17] = RUES2-GLR cells under directed endoderm differentiation
[18] = cytotoxicity half-maximal concentration
[19] = Homo sapiens, 48 h, read-out: DevTox-GLR Endo AC50 (µM), SOX17 half-maximal activity concentration, 48 h exposure

SMILES	AC50 [1] [µM]	Emax [1] [%]	MAX_MEAN [1] [Percent Activity]	MAX_MED [1] [Percent Activity]	Emax (RUES2-GLR cells) [%]	Cell Count ACC (RUES2-GLR cells; human, 48 h) [µM]	Emax [2, 9] [%]	Emax [2, 10] [%]	HIT−CALL [2]	Development Toxicant Classification [3]	Classification [3]	quickPredict TI [4] [µM]	Emax [5, 12] [%]	Emax [5, 13] [%]	Emax [5, 14] [%]	AC50 [5, 15] [µM]	Emax [5, 16] [%]	Hit Call [5]	DevTox ACC ([5]; 48 h exposure) [µM]	HIT−CALL [5]	other results
CC[C@H](C)C(=O)O[C@H]1C[C@@H](C)C=C2C=C[C@H](C)[C@H](CC[C@@H]3C[C@@H](O)CC(=O)O3)[C@H]21 [Lovastatin]	36.3	13.5	21.1	14.8	95.4	0.7145	-9.76	-10.1	0	Positive	Teratogen	5.1	102	102	102	11.2	123	Positive	0.9345	1	DevTox-GLR Endo CC (RUES2-GLR cells; human, 48 h): 0.71 µM; DT Class. [3, 11]: Pos; DevTox-GLR Endo ACC ([5]; 48 h exposure): 0.93 µM
CCCCc1oc2ccccc2c1C(=O)c1cc(I)c(OCCN(CC)CC)c(I)c1 [Amiodarone]	11.7	1.23	2.82	2.22	97.1		6.18	3.59	0		Teratogen	5.1				17		Positive		1	DT Class. [3, 11]: Pos
Nc1ccn([C@@H]2O[C@H](CO)[C@@H](O)[C@@H]2O)c(=O)n1 [Cytarabine]	0.582	2.27	2.89	2.91	86.7	0.05231	12.2	12.7	0		Teratogen	0.054	102	102	102	0.557	102	Positive	0.4557	1	effect on cell count (in words) (RUES2-GLR cells): significant decreases in cell count; DevTox-GLR Endo CC (RUES2-GLR cells; human, 48 h): 0.05 µM; DT Class. [3, 11]: Pos; DevTox-GLR Endo ACC ([5]; 48 h exposure): 0.46 µM
COc1ccc2c(c1)c(CC(=O)O)c(C)n2C(=O)c1ccc(Cl)cc1 [Indomethacin]	12.9	6.38	6.48	6.65	92.5	8.702	0.625	-1.03	0			72.7	101	100	101	13.2	101	Positive	9.385	1	DevTox-GLR Endo CC (RUES2-GLR cells; human, 48 h): 8.70 µM; DevTox-GLR Endo ACC ([5]; 48 h exposure): 9.38 µM
C[C@](N)(Cc1ccc(O)c(O)c1)C(=O)O [Methyldopa]			4.03	0.534	10.2	>200	13.8	12.9	0	Negative	Non-Teratogen		23.5	19.9	23.5	112	30.9	Positive	217.84	1	CC50 at 48 h [6, 17]: > 200 µM; DT Class. ([3]; chemicals common with hPST): Neg; IC50 [7]: 272 µM; hPST TC50 (H9 human ESC line; [18]): 462 µM; hPST TC50 (H9 human ESC line; hPST cytotoxicity): 462 µM; HIT−CALL [8]: 0; MAX_MEAN [8]: 0.823 Percent Activity; MAX_MED [8]: 0.851 Percent Activity; hit call designation (in words) [5]: false positive; AC50 [5, 19]: 113 µM; AC50 ([5]; read-out: DevTox-GLR Endo AC50, SOX17 half-maximal activity concentration, 48 h exposure): 113 µM
O=C(O)c1cccnc1 [Niacin, Nicotinic acid]			0.611	0.561	10.8	>200	11.3	11.4	0	Negative	Non-Teratogen		6.06	5.21	6.06			Negative		0	CC50 at 48 h [6]: > 200 µM; DT Class. ([3]; chemicals common with hPST): Neg; IC50 [7]: > 200 µM; hPST TC50 (H9 human ESC line; [18]): >200 µM; hPST TC50 (H9 human ESC line; hPST cytotoxicity): > 200 µM; HIT−CALL [8]: 0; MAX_MEAN [8]: 0.818 Percent Activity; MAX_MED [8]: 0.865 Percent Activity; AC50 [5, 19]: > 200 µM
[H]/N=C(/NCCCCC)N/N=C/c1c[nH]c2ccc(OC)cc12 [Tegaserod Maleate]			2.78	2.79	98.8		6.89	6.94	0	Negative	Non-Teratogen		102	102	102	5.32	102	Positive	4.472	1	Cell Count ACC (RUES2-GLR cells; Table S2, 48 h exposure): 4.239 µM; CC50 at 48 h [6, 17]: 5.06 µM; DT Class. ([3]; chemicals common with hPST): Neg; IC50 [7]: 4.6 µM; hPST TC50 (H9 human ESC line; [18]): 4.5 µM; hPST TC50 (H9 human ESC line; hPST cytotoxicity): 4.5 µM; HIT−CALL [8]: 1; MAX_MEAN [8]: 3.57 Percent Activity; MAX_MED [8]: 2.57 Percent Activity; hit call designation (in words) [5]: false positive; AC50 [5, 19]: 5.32 µM; Emax ([5]; Homo sapiens, read-out: maximum observed effect level class (% max inhibition)): 80 to 100%
